Experimental data published in patent US7951789B2 (priority 2006, dated 2011).

Columns and labels:
[1] = tested on: HCV Conl subgenomic replicon (GS4.1 cells); assay: HCV replicon assay (NS4A ELISA, HCV ELISA 2); type: cell-based; conditions: Hepatitis C virus; GS4.1 cells, 72 hours, NS4A ELISA; read-out: HCV ELISA 2 EC50
How it was run: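 Huh-7 GS4.1 replicon cells treated 72 h at 37° C. with ten 2-fold dilutions from 75 μM (or single 15 μM), 0.5% DMSO; NS4A measured by ELISA, absorbance 492 nm, replicon-free Huh-7 as negative control. EC50 by four-parameter sigmoidal fit. CC50 from same treatment by MTS-type Cell Titer 96 viability.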

[2] = Cytotoxicity evaluation in GS4.1 cells (Cell Titer 96 AQueous One Solution); type: cell-based; conditions: human, 72 hours
[3] = tested on: HBV wt (HepG2); assay: Anti-HBV activity in HBV-infected HepG2 cells; type: cell-based; conditions: N=3
Protocol: The compound of Example 1 (NM 204) (Hydroxy-tBuSATE N-benzylphosphoramidate derivative of L-ddA) (A550) was contacted with HBV-infected HepG2 cells. EC50 values were measured according to standard techniques.

[4] = tested on: endogenous HBV polymerase activity; assay: HBV drug susceptibility assay (EPA read-out); type: cell-based
Protocol: • a) Collagen-I coated cell culture plates were seeded with cells at a density of 0.25-0.5×10^6 cells per well in 2 ml of growth/selection media. • b) Drug stock solutions were made up freshly in 100% DMSO as 200× stocks. Seven 4-fold dilutions of test compound were prepared ranging from 2.5 μM to 0.0006 μM (final). Master drug dilutions were divided into 4 aliquots, and then stored at −20° C. until used. • c) One day after cells were seeded, drug treatments were initiated by adding 10 μl of drug dilution along with 2 ml of fresh growth/selection media. […] The no-drug control wells received 10 μl of DMSO in fresh media. • d) Cells were treated every-other-day with 2 ml of fresh drug combinations/medium for a total of 8 days. Cell lysates were then collected on day 10 as described below and endogenous polymerase assay were performed. Preparation of Nucleocapsid-Containing Lysates for Epa Analysis • a) Two days after the final drug treatment, cells were harvested. • b) Media was carefully aspirated and the cell monolayers were rinsed once with 1 ml of PBS. • c) 1 ml of lysis buffer (50 mM Tris-HCl pH 7.5/150 mM NaCl/5 mM MgCl2/0.2% NP-40) was added to each well. The detergent is required to strip the outer envelope from virions and to allow capture of the inner nucleocapsids. Plates were kept on ice for >30 min. • d) Lysed cells were transferred to 1.5 ml-microfuge tubes. • e) Lysates were clarified by spinning at room temperature for 5 min at 14,000 rpm. • f) Clarified lysates were transferred to fresh tubes and immediately frozen on dry-ice, then stored at −80° C. until endogenous polymerase assays can be performed as described below. Endogenous Polymerase Assay (EPA) of Cell Lysates • a) EPAs were performed essentially as described in Seifer, et al (1998). J. Virol. 72: 2765-2776. […] The detergent is required to enhance permeability of the nucleocapsids. • d) Following digestion with 1 mg/ml of Proteinase K for 1 hour at 37° C., endogenously ^33P-labeled HBV DNA was liberated via phenol/chloroform extraction. • e) The nucleic acids were then precipitated with one volume of 5 M NH4-acetate and 2.5 volumes 100% EtOH, and separated on a 1% native agarose gel in Tris-borate buffer. • f) Gels were blotted onto positively charged nylon membrane overnight at room temperature via capillary transfer in 0.4 N NaOH. • g) Dried membranes were exposed to a phosphoimager screen (GE Healthcare) overnight at room temperature, then scanned (Storm 860, GE Healthcare) and quantitated with ImageQuant software (GE Healthcare). • h) Dose-response curves were generated using XLfit 4.1 software. The mean effective drug concentrations that inhibit endogenous HBV polymerase activity by 50% were calculated from several independent experiments. Cytotoxicity Determination

[5] = tested on: HepG2 cells; assay: In vitro cytotoxicity assay in HepG2 cells (MTS); type: cell-based; conditions: 9 days, collagen plates
Protocol: A standard in vitro cytotoxicity assay was performed in HepG2 cells. Cells were exposed to drug for 9 days. Cell viability was determined via MTS staining using a CellTiter 96 Aqueous One Solution cell proliferation assay according to the manufacturer's instructions. • a) HepG2 cells were seeded in 96-well tissue culture plates in 100 μl fresh growth media at 7×10^3 cells per well. • b) Drug stock solutions were made up in 100% DMSO as 400× stock solutions and stored at −20° C. until used. • c) Four hours after cells were plated the drug dilutions were prepared and then added to the cells. Cells received up to 100 μM of drug in a total of 200 μl of fresh growth media containing 0.25% DMSO. Control wells received growth media with 0.25% DMSO growth media. Plates were incubated at 37° C., 5% CO2. • d) Cells were treated every-other-day with fresh growth media and fresh drug dilutions for a total of 8 days as described above. • e) On day 9, cell viability of HepG2 cells was determined by adding 20 μl of MTS CellTiter 96 Aqueous One Solution.

Compound | melting point [°C] | EC50 [1] [nM] | CC50 [2] [nM] | EC50 [3] [nM] | SI ([4]; CC50/EC50, HBV Cell Assay (EPA Read-out)) | EC50 ([4]; HBV Cell Assay (EPA Read-out), collagen plates, read-out: Antiviral Activity (EC50 in μM)) [µM] | CC50 [5] [µM]
CC(C)(CO)C(=O)SCCOP(=O)(NCc1ccccc1)OC[C@H]1O[C@@H](n2ccc(N)nc2=O)[C@]2(C)OC(=O)O[C@H]12 (stereo partly shown) [Example B302, Hydroxy-tBuSATE N-benzylphosphoramidate 2′,3′-cyclic carbonate Derivative of 2′-C-methylcytidine] | 100 to 102 | 1000 to 10000 | > 75000 |  |  |  | 
Cc1cn([C@@H]2C[C@@H](O)[C@H](CO)O2)c(=O)[nH]c1=O [LdT] |  |  |  | 260 ± 48 | >273 | 0.366 ± 0.056 | > 100
